Source: patent US9737535B2, “Methods for treating cancer using TOR kinase inhibitor combination therapy comprising administering substituted pyrazino[2,3-b]pyrazines” (Signal Pharmaceuticals, LLC, priority 2014, dated 2017)

Tested on: BT-20
Test: Anti-proliferation assay (ATPLite), Chalice synergy score
Assay type: cell-based
Design: scale not given here
Conditions: Compound 1 in combination with the named second active agent, 72 h, mean of n = 3 experiments in triplicate
Text: (§1) Cells were thawed from a liquid nitrogen preserved state.
(§2) The calculation for synergy score is provided below.
(§3) If T≧V0:100*[1−(T−V0)/(V−V0)]

Point of comparison: `CC(C)C[C@H](NC(=O)CNC(=O)c1cc(Cl)ccc1Cl)B1OC(=O)C(CC(=O)O)(CC(=O)O)O1` [MLN9708], Synergy score 3.67. Against it:
- CO[C@H]1/C=C\C=C(/C)C(=O)NC2=CC(=O)C(NCCN(C)C)=C(C[C@@H](C)C[C@H](OC)[C@H](O)[C@@H](C)/C=C(\C)[C@@H]1OC(N)=O)C2=O [Compound 17-DMAG] — higher, 5.94
- COc1ccc(-c2ccc3c(N4CCOC[C@@H]4C)nc(N4CCOC[C@@H]4C)nc3n2)cc1CO [AZD8055] — lower, 0.70

Tested on: HCC-1187
Test: as above
Assay type: cell-based
Design: scale not given here
Conditions: Compound 1 in combination with the named second active agent, 72 h, mean of n = 3 experiments in triplicate
Text: as §1, §2, §3

Point of comparison: `CC(C)C[C@H](NC(=O)CNC(=O)c1cc(Cl)ccc1Cl)B1OC(=O)C(CC(=O)O)(CC(=O)O)O1` [MLN9708], Synergy score 1.79. Against it:
- CO[C@H]1/C=C\C=C(/C)C(=O)NC2=CC(=O)C(NCCN(C)C)=C(C[C@@H](C)C[C@H](OC)[C@H](O)[C@@H](C)/C=C(\C)[C@@H]1OC(N)=O)C2=O [Compound 17-DMAG] — lower, 0.33
- COc1ccc(-c2ccc3c(N4CCOC[C@@H]4C)nc(N4CCOC[C@@H]4C)nc3n2)cc1CO [AZD8055] — higher, 2.00

Tested on: HCC-1500
Test: as above
Assay type: cell-based
Design: scale not given here
Conditions: Compound 1 in combination with the named second active agent, 72 h, mean of n = 3 experiments in triplicate
Text: as §1, §2, §3

Point of comparison: `CC(C)C[C@H](NC(=O)CNC(=O)c1cc(Cl)ccc1Cl)B1OC(=O)C(CC(=O)O)(CC(=O)O)O1` [MLN9708], Synergy score 2.26. Against it:
- CO[C@H]1/C=C\C=C(/C)C(=O)NC2=CC(=O)C(NCCN(C)C)=C(C[C@@H](C)C[C@H](OC)[C@H](O)[C@@H](C)/C=C(\C)[C@@H]1OC(N)=O)C2=O [Compound 17-DMAG] — lower, 0.99
- COc1ccc(-c2ccc3c(N4CCOC[C@@H]4C)nc(N4CCOC[C@@H]4C)nc3n2)cc1CO [AZD8055] — higher, 2.98

Tested on: MDA-MB-231
Test: as above
Assay type: cell-based
Conditions: Compound 1 in combination with second active agent, mean self-cross + 2σ threshold 2.61
Text: as §1, §2, §3

Point of comparison: `CC(C)C[C@H](NC(=O)CNC(=O)c1cc(Cl)ccc1Cl)B1OC(=O)C(CC(=O)O)(CC(=O)O)O1` [MLN9708], Synergy score 2.27. Against it:
- CO[C@H]1/C=C\C=C(/C)C(=O)NC2=CC(=O)C(NCCN(C)C)=C(C[C@@H](C)C[C@H](OC)[C@H](O)[C@@H](C)/C=C(\C)[C@@H]1OC(N)=O)C2=O [Compound 17-DMAG] — lower, 1.00
- COc1ccc(-c2ccc3c(N4CCOC[C@@H]4C)nc(N4CCOC[C@@H]4C)nc3n2)cc1CO [AZD8055] — lower, 0.61

Tested on: BT-549
Test: as above
Assay type: cell-based
Conditions: Compound 1 in combination with the named second active agent, 72 h, mean of n = 3 experiments in triplicate
Text: as §1, §2, §3

Point of comparison: `CC(C)C[C@H](NC(=O)CNC(=O)c1cc(Cl)ccc1Cl)B1OC(=O)C(CC(=O)O)(CC(=O)O)O1` [MLN9708], Synergy score 4.47. Against it:
- CO[C@H]1/C=C\C=C(/C)C(=O)NC2=CC(=O)C(NCCN(C)C)=C(C[C@@H](C)C[C@H](OC)[C@H](O)[C@@H](C)/C=C(\C)[C@@H]1OC(N)=O)C2=O [Compound 17-DMAG] — lower, 0.01
- COc1ccc(-c2ccc3c(N4CCOC[C@@H]4C)nc(N4CCOC[C@@H]4C)nc3n2)cc1CO [AZD8055] — lower, 0.98

Tested on: MCF7
Test: as above
Assay type: cell-based
Conditions: Compound 1 in combination with second active agent, mean self-cross + 2σ threshold 3.07
Text: as §1, §2, §3

Point of comparison: `COc1ccc(-c2ccc3c(N4CCOC[C@@H]4C)nc(N4CCOC[C@@H]4C)nc3n2)cc1CO` [AZD8055], Synergy score 1.22. Against it:
- CO[C@H]1/C=C\C=C(/C)C(=O)NC2=CC(=O)C(NCCN(C)C)=C(C[C@@H](C)C[C@H](OC)[C@H](O)[C@@H](C)/C=C(\C)[C@@H]1OC(N)=O)C2=O [Compound 17-DMAG] — lower, 0.13
- CC(C)C[C@H](NC(=O)CNC(=O)c1cc(Cl)ccc1Cl)B1OC(=O)C(CC(=O)O)(CC(=O)O)O1 [MLN9708] — lower, 0.39

Tested on: MDA-MB-157
Test: as above
Assay type: cell-based
Conditions: Compound 1 in combination with second active agent, mean self-cross + 2σ threshold 4.68
Text: as §1, §2, §3

Point of comparison: `COc1ccc(-c2ccc3c(N4CCOC[C@@H]4C)nc(N4CCOC[C@@H]4C)nc3n2)cc1CO` [AZD8055], Synergy score 1.04. Against it:
- CO[C@H]1/C=C\C=C(/C)C(=O)NC2=CC(=O)C(NCCN(C)C)=C(C[C@@H](C)C[C@H](OC)[C@H](O)[C@@H](C)/C=C(\C)[C@@H]1OC(N)=O)C2=O [Compound 17-DMAG] — higher, 6.09
- CC(C)C[C@H](NC(=O)CNC(=O)c1cc(Cl)ccc1Cl)B1OC(=O)C(CC(=O)O)(CC(=O)O)O1 [MLN9708] — higher, 2.91

Tested on: BT-474
Test: as above
Assay type: cell-based
Conditions: Compound 1 in combination with the named second active agent, 72 h, mean of n = 3 experiments in triplicate
Text: as §1, §2, §3

Point of comparison: `CO[C@H]1/C=C\C=C(/C)C(=O)NC2=CC(=O)C(NCCN(C)C)=C(C[C@@H](C)C[C@H](OC)[C@H](O)[C@@H](C)/C=C(\C)[C@@H]1OC(N)=O)C2=O` [Compound 17-DMAG], Synergy score 2.24. Against it:
- CC(C)C[C@H](NC(=O)CNC(=O)c1cc(Cl)ccc1Cl)B1OC(=O)C(CC(=O)O)(CC(=O)O)O1 [MLN9708] — lower, 0.75
- COc1ccc(-c2ccc3c(N4CCOC[C@@H]4C)nc(N4CCOC[C@@H]4C)nc3n2)cc1CO [AZD8055] — lower, 1.53

Tested on: Hs-578-T
Test: as above
Assay type: cell-based
Conditions: Compound 1 in combination with second active agent, mean self-cross + 2σ threshold 4.09
Text: as §1, §2, §3

Point of comparison: `CO[C@H]1/C=C\C=C(/C)C(=O)NC2=CC(=O)C(NCCN(C)C)=C(C[C@@H](C)C[C@H](OC)[C@H](O)[C@@H](C)/C=C(\C)[C@@H]1OC(N)=O)C2=O` [Compound 17-DMAG], Synergy score 0.45. Against it:
- CC(C)C[C@H](NC(=O)CNC(=O)c1cc(Cl)ccc1Cl)B1OC(=O)C(CC(=O)O)(CC(=O)O)O1 [MLN9708] — higher, 1.68
- COc1ccc(-c2ccc3c(N4CCOC[C@@H]4C)nc(N4CCOC[C@@H]4C)nc3n2)cc1CO [AZD8055] — higher, 1.55

Tested on: HCC-1937
Test: as above
Assay type: cell-based
Conditions: Compound 1 in combination with the named second active agent, 72 h, mean of n = 3 experiments in triplicate
Text: as §1, §2, §3

Point of comparison: `COc1ccc(-c2ccc3c(N4CCOC[C@@H]4C)nc(N4CCOC[C@@H]4C)nc3n2)cc1CO` [AZD8055], Synergy score 2.24. Against it:
- CO[C@H]1/C=C\C=C(/C)C(=O)NC2=CC(=O)C(NCCN(C)C)=C(C[C@@H](C)C[C@H](OC)[C@H](O)[C@@H](C)/C=C(\C)[C@@H]1OC(N)=O)C2=O [Compound 17-DMAG] — lower, 1.70
- CC(C)C[C@H](NC(=O)CNC(=O)c1cc(Cl)ccc1Cl)B1OC(=O)C(CC(=O)O)(CC(=O)O)O1 [MLN9708] — higher, 3.84

Tested on: HCC-1806
Test: as above
Assay type: cell-based
Conditions: Compound 1 in combination with the named second active agent, 72 h, mean of n = 3 experiments in triplicate
Text: as §1, §2, §3

Point of comparison: `COc1ccc(-c2ccc3c(N4CCOC[C@@H]4C)nc(N4CCOC[C@@H]4C)nc3n2)cc1CO` [AZD8055], Synergy score 1.47. Against it:
- CO[C@H]1/C=C\C=C(/C)C(=O)NC2=CC(=O)C(NCCN(C)C)=C(C[C@@H](C)C[C@H](OC)[C@H](O)[C@@H](C)/C=C(\C)[C@@H]1OC(N)=O)C2=O [Compound 17-DMAG] — lower, 1.40
- CC(C)C[C@H](NC(=O)CNC(=O)c1cc(Cl)ccc1Cl)B1OC(=O)C(CC(=O)O)(CC(=O)O)O1 [MLN9708] — higher, 4.31

Tested on: HCC70
Test: as above
Assay type: cell-based
Conditions: Compound 1 in combination with second active agent; HCC-70; mean self-cross + 2σ threshold 3.45
Text: as §1, §2, §3

Point of comparison: `COc1ccc(-c2ccc3c(N4CCOC[C@@H]4C)nc(N4CCOC[C@@H]4C)nc3n2)cc1CO` [AZD8055], Synergy score 1.13. Against it:
- CO[C@H]1/C=C\C=C(/C)C(=O)NC2=CC(=O)C(NCCN(C)C)=C(C[C@@H](C)C[C@H](OC)[C@H](O)[C@@H](C)/C=C(\C)[C@@H]1OC(N)=O)C2=O [Compound 17-DMAG] — higher, 11.10
- CC(C)C[C@H](NC(=O)CNC(=O)c1cc(Cl)ccc1Cl)B1OC(=O)C(CC(=O)O)(CC(=O)O)O1 [MLN9708] — higher, 2.16

Tested on: HCC-1428
Test: as above
Assay type: cell-based
Conditions: Compound 1 in combination with the named second active agent, 72 h, mean of n = 3 experiments in triplicate
Text: as §1, §2, §3

Point of comparison: `CC(C)C[C@H](NC(=O)CNC(=O)c1cc(Cl)ccc1Cl)B1OC(=O)C(CC(=O)O)(CC(=O)O)O1` [MLN9708], Synergy score 2.59. Against it:
- CO[C@H]1/C=C\C=C(/C)C(=O)NC2=CC(=O)C(NCCN(C)C)=C(C[C@@H](C)C[C@H](OC)[C@H](O)[C@@H](C)/C=C(\C)[C@@H]1OC(N)=O)C2=O [Compound 17-DMAG] — lower, 2.46
- COc1ccc(-c2ccc3c(N4CCOC[C@@H]4C)nc(N4CCOC[C@@H]4C)nc3n2)cc1CO [AZD8055] — lower, 1.79

Tested on: MDA-MB-436
Test: as above
Assay type: cell-based
Conditions: Compound 1 in combination with second active agent, mean self-cross + 2σ threshold 1.91
Text: as §1, §2, §3

Point of comparison: `COc1ccc(-c2ccc3c(N4CCOC[C@@H]4C)nc(N4CCOC[C@@H]4C)nc3n2)cc1CO` [AZD8055], Synergy score 0.15. Against it:
- CO[C@H]1/C=C\C=C(/C)C(=O)NC2=CC(=O)C(NCCN(C)C)=C(C[C@@H](C)C[C@H](OC)[C@H](O)[C@@H](C)/C=C(\C)[C@@H]1OC(N)=O)C2=O [Compound 17-DMAG] — higher, 0.61
- CC(C)C[C@H](NC(=O)CNC(=O)c1cc(Cl)ccc1Cl)B1OC(=O)C(CC(=O)O)(CC(=O)O)O1 [MLN9708] — higher, 2.77

Tested on: MDA-MB-468
Test: as above
Assay type: cell-based
Conditions: Compound 1 in combination with second active agent, mean self-cross + 2σ threshold 4.66
Text: as §1, §2, §3

Point of comparison: `COc1ccc(-c2ccc3c(N4CCOC[C@@H]4C)nc(N4CCOC[C@@H]4C)nc3n2)cc1CO` [AZD8055], Synergy score 1.69. Against it:
- CO[C@H]1/C=C\C=C(/C)C(=O)NC2=CC(=O)C(NCCN(C)C)=C(C[C@@H](C)C[C@H](OC)[C@H](O)[C@@H](C)/C=C(\C)[C@@H]1OC(N)=O)C2=O [Compound 17-DMAG] — higher, 7.72
- CC(C)C[C@H](NC(=O)CNC(=O)c1cc(Cl)ccc1Cl)B1OC(=O)C(CC(=O)O)(CC(=O)O)O1 [MLN9708] — higher, 3.00
